Source: patent US11331317B2, “Composition for treating vascular or cardiac valvular calcification, containing thiamine derivative” (KYUNGPOOK NATIONAL UNIVERSITY INDUSTRY-ACADEMIC COOPERATION …, priority 2018, dated 2022)

Experiments:
[1] = tested on: vascular smooth muscle cells; assay: Investigation of calcification of vascular smooth muscle cells (silver nitrate staining, optical microscope); format: cell-based, cattle; details: inorganic phosphate (Pi)-induced, 100 and 200 μM, cultured 10 days, FIG. 1
Description: The surrounding tissues were removed from the thoracoabdominal aorta isolated from male cattle, and endothelial cells that line blood vessels were removed. The cleaned blood vessels were divided into small fragments, which were then aligned on a culture dish containing Dulbecco's modified Eagle's medium (DMEM, Low Glucose, Thermo Fisher Scientific, USA) supplemented with 20% fetal bovine serum (FBS, Hyclone, Australia). Thereafter, culturing was performed in a cell incubator at 37° C. and 5% CO2 for 3-4 weeks. The vascular smooth muscle cells stretching out around the vascular tissues were subjected to primary culture with media changed every two days.
The vascular smooth muscle cells cultured in Preparation Example 1 above were stabilized by subculture in DMEM (high glucose) supplemented with penicillin/streptomycin antibiotics and 10% FBS. […]
After the induction of calcification by the method in Preparation Example 2 above, the media were removed from the culture dishes, followed by washing with phosphate buffer saline (PBS) three times. […] Thereafter, the cells were washed with primary distilled water two or three times, and then were determined for a degree of calcification through an optical microscope (BX53 microscope, Olympus, Japan).

[2] = tested on: vascular smooth muscle cells; assay: Quantification of calcium in vascular smooth muscle cells; format: cell-based, cattle; details: inorganic phosphate-induced, 100 and 200 μM, corrected by protein amount, p<0.01 vs Vehicle, FIG. 2
Description: The surrounding tissues were removed from the thoracoabdominal aorta isolated from male cattle, and endothelial cells that line blood vessels were removed. The cleaned blood vessels were divided into small fragments, which were then aligned on a culture dish containing Dulbecco's modified Eagle's medium (DMEM, Low Glucose, Thermo Fisher Scientific, USA) supplemented with 20% fetal bovine serum (FBS, Hyclone, Australia). Thereafter, culturing was performed in a cell incubator at 37° C. and 5% CO2 for 3-4 weeks. The vascular smooth muscle cells stretching out around the vascular tissues were subjected to primary culture with media changed every two days. […]
After the induction of calcification by the method in Preparation Example 2 above, the media were removed from the culture dishes, followed by washing with PBS. Then, the cells were decalcified by treatment with 0.6 N HCl at 4° C. for 24 hours, The supernatant was recovered for the use in the quantification of calcium, and proteins were extracted from the cells by using 0.1 N NaOH/0.1% SDS, and quantified by using the BCA method. […]
(ODSAMPLE and ODBLANK represent the OD612nm values of calcium sample and blank (water), respectively; and the slope represents the inclination value on the measured absorbance graph)

[3] = tested on: C57BL/6J mice; assay: In vivo vitamin D3-induced vascular calcification, Von Kossa staining of aorta; details: FIG. 3
Description: (§1) C57BL/6J mice aged 8-9 weeks were grouped into 5 groups of 7 mice each, and four groups (one group being used as a control) underwent the induction of vascular calcification by subcutaneous administration of a high dose (9.0×10^5 IU) of vitamin D3 (Vit. D3) once a day for a total of 3 days.
First, on the 10th day after the administration of vitamin D3, the mice were sacrificed and the abdomen was opened, and then the aorta was separated by cleanly removing surrounding tissues of the aorta, and fixed with 4% paraformaldehyde (PFA) for 24 hours. The fixed aorta was washed, immersed in a 5% silver nitrate solution, and incubated under UV light for 30 minutes.

[4] = tested on: C57BL/6J mice; assay: In vivo vitamin D3-induced vascular calcification, calcium quantification in aorta; details: FIG. 4
Description: as §1
Additionally, on the 10th day after the administration of vitamin D3, the mice were sacrificed and the abdomen was opened, and then the aorta was separated by cleanly removing surrounding tissues and frozen in liquid nitrogen. The frozen tissues were thawed, weighed after the removal of moisture, and then subjected to decalcification with a 0.6 N HCl solution. The colorimetric Ca quantification kit (Bioassay DICA-500) was used to quantify calcium in the 0.6 N HCl solution used in the decalcification, and the calcium quantification was corrected by using the tissue weight.

| SMILES | calcification (black dots) [1] | calcium amount increased by inorganic phosphate [2] | colored parts of aorta (Von Kossa staining) ([3]; 10 mg/kg and 30 mg/kg oral once a day for 13 days) | degree of recovery compared with the DCA administration group (positive control) ([3]; 30 mg/kg oral) | amount of calcium in the aorta ([4]; 10 mg/kg and 30 mg/kg oral once a day for 13 days, corrected by tissue weight) | degrees of decrease of calcium compared with the DCA group (positive control) ([4]; 10 mg/kg and 30 mg/kg oral) |
| --- | --- | --- | --- | --- | --- | --- |
| CC(=C(CCO)SSCC1CCCO1)N(C=O)Cc1cnc(C)nc1N (stereo in doubt) [fursultiamine, thiamine tetrahydrofurfuryl disulfide] | inhibited | decreased | reduced (recovered) dose-dependently | excellent | decreased dose-dependently | excellent |
| C=CCSS/C(CCO)=C(/C)N(C=O)Cc1cnc(C)nc1N [allithiamine, thiamine allyl disulfide] | inhibited | decreased |  |  |  |  |
